In ChEMBL document CHEMBL3217726, “Asymmetric synthesis of potent chroman-based Rho kinase (ROCK-II) inhibitors” (Medchemcomm, 2011) one finds IC50 and Ratio IC50 data, which are given here for ten molecules.

Assay [1] concerns the target Rho-associated protein kinase 2 (Homo sapiens, UniProt O75116). The experiment in a line: Inhibition of ROCK2 (unknown origin) after 4 hrs by HTRF assay.
Assay [2] in a line: Inhibition of PKA (unknown origin) after 70 mins by luminescence assay. The arrangement: species or system Homo sapiens.
Assay [3] has as its target Rho-associated protein kinase 2 (Rattus norvegicus, UniProt Q62868). In words: Inhibition of ROCK2-mediated myosin light chain bis-phosphorylation in rat A7r5 cells after 1 hr by TO-PRO-3 iodide staining-based assay. It counts as cell-based.
The target of assay [4] is Serine/threonine-protein kinase MRCK alpha (Homo sapiens, UniProt Q5VT25). The experiment in a line: Inhibition of MRCK-alpha (unknown origin) using LCB-AKRRRLSSLRA-NH2 as substrate after 75 mins by luminescence assay.
The species named for assay [5] is Homo sapiens. In words: Selectivity ratio of IC50 for PKA (unknown origin) to IC50 for ROCK2 (unknown origin).
For assay [6], the species on record is Homo sapiens. In words: Selectivity ratio of IC50 for MRCK-alpha (unknown origin) to IC50 for ROCK2 (unknown origin).

SMILES strings stand for the structures. A value given as a limit tells only on which side of the number the result lay.

Chain of Rho-associated protein kinase 2 (Homo sapiens, UniProt O75116) (O75116 whole entry): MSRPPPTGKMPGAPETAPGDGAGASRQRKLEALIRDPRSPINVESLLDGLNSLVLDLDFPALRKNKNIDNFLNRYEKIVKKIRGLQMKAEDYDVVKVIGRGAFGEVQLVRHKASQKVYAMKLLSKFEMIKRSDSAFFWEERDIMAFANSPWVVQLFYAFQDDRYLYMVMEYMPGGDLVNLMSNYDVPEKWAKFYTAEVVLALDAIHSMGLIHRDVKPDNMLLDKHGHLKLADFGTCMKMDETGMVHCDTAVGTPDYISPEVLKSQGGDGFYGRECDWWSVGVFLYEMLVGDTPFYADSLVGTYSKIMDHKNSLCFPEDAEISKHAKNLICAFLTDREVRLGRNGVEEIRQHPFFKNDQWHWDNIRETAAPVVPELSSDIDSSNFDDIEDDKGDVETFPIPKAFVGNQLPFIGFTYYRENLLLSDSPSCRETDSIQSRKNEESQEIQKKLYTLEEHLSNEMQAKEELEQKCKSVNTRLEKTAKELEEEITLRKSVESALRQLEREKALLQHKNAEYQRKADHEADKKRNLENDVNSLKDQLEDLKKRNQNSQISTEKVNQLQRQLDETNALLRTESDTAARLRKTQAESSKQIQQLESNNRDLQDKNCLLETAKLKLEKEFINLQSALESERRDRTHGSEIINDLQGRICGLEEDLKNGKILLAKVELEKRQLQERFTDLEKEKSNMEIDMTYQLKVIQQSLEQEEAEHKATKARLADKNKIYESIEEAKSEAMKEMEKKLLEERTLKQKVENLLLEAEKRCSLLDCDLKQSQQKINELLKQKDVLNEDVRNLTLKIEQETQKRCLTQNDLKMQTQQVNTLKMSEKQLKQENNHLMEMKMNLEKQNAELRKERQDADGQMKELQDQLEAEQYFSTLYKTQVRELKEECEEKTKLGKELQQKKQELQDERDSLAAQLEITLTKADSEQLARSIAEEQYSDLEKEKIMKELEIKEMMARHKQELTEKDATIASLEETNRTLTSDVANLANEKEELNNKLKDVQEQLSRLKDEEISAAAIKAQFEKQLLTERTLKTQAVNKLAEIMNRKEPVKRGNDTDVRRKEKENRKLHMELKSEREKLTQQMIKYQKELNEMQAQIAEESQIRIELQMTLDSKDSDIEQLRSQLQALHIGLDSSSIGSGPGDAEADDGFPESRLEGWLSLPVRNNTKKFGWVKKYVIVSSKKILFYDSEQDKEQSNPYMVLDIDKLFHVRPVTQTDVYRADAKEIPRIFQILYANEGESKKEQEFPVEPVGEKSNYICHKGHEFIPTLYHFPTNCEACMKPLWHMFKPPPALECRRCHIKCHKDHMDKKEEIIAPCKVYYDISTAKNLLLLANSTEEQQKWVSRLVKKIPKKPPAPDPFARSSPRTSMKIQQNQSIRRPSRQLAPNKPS
Chain of Serine/threonine-protein kinase MRCK alpha (Q5VT25 whole entry): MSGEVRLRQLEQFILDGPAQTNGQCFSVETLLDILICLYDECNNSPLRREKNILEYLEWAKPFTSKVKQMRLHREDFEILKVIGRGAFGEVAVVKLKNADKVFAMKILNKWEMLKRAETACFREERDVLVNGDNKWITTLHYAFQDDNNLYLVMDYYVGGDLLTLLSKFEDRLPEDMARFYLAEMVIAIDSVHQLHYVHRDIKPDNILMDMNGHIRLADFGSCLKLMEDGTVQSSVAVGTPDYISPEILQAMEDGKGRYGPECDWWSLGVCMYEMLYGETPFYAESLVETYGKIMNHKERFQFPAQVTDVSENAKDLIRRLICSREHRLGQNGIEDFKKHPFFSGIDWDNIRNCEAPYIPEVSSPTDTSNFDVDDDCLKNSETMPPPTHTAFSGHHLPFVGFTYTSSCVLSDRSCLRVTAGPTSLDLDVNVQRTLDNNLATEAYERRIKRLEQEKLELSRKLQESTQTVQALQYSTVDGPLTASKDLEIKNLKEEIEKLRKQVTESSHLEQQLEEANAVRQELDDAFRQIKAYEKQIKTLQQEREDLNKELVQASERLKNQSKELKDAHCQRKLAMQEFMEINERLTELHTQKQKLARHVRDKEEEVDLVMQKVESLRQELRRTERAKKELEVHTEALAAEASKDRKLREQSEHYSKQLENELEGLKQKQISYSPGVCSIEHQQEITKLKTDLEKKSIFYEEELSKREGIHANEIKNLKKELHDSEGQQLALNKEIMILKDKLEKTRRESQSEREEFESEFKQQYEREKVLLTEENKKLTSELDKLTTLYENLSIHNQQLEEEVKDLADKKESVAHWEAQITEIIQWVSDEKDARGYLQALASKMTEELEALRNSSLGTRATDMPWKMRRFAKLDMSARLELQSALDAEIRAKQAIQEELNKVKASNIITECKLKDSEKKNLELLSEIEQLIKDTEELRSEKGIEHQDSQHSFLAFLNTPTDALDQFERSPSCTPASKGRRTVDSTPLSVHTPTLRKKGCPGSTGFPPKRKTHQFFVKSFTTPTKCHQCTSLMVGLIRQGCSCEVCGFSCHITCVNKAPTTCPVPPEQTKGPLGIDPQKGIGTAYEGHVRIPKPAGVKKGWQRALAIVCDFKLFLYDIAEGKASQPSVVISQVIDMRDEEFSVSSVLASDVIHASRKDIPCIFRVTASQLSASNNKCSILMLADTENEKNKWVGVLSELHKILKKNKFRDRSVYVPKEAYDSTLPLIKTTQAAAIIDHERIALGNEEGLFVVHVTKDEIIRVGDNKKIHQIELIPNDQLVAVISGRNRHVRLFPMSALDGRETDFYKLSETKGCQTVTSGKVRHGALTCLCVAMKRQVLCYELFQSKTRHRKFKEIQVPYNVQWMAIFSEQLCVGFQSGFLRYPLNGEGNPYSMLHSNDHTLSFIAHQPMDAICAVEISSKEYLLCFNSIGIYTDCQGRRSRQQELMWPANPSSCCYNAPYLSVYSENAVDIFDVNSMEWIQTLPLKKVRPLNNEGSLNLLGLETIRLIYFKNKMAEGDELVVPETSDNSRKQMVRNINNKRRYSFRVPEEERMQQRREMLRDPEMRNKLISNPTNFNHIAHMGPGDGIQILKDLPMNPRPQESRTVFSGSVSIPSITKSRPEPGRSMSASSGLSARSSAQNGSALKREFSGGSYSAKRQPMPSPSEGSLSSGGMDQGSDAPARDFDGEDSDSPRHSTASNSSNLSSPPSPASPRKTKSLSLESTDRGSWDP
Chain of Rho-associated protein kinase 2 (Rattus norvegicus, UniProt Q62868) (Q62868 whole entry): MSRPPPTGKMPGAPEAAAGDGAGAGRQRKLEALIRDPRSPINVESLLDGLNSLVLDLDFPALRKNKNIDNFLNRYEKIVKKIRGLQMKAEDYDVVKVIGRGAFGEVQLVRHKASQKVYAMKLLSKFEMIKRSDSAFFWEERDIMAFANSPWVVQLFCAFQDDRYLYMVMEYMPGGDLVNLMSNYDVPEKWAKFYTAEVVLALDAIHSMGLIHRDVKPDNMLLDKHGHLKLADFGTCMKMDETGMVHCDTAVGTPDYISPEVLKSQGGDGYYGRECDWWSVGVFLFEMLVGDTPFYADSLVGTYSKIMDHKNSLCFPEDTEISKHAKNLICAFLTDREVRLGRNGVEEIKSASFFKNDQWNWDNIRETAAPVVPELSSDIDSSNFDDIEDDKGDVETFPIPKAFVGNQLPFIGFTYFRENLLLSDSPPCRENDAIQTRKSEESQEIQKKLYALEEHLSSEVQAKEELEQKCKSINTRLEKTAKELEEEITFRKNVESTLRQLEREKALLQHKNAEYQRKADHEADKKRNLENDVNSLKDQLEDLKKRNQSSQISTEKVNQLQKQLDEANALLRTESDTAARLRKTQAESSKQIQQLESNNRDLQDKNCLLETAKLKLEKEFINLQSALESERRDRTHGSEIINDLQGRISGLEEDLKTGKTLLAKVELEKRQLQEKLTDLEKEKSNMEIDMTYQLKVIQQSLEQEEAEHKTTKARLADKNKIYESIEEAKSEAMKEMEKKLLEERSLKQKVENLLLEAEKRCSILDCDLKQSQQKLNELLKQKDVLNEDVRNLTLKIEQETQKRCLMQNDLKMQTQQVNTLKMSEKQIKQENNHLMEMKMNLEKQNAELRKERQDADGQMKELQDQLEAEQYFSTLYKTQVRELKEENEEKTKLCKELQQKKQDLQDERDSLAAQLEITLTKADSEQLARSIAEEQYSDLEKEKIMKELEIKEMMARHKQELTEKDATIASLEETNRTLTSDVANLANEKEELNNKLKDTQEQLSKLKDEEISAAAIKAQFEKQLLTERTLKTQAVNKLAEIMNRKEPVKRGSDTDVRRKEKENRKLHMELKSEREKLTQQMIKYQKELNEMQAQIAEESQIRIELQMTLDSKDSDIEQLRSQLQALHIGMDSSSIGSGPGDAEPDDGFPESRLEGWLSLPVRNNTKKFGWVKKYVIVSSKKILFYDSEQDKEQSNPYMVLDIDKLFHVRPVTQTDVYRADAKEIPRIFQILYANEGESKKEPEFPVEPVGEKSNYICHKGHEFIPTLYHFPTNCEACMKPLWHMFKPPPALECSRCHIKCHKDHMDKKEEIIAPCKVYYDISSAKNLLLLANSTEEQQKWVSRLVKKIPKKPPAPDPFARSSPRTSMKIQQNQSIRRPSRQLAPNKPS

The IC50 is the point on the concentration scale where inhibition reaches its midpoint. Lower therefore signals greater potency in that assay. On to `COc1ccc2c(c1)C[C@H](C(=O)Nc1ccc(-c3cn[nH]c3)cc1O[C@H]1CCN(C)C1)CO2`, for which the IC50 in assay [1] was under 1 nM; in assay [2], 7380 nM; in assay [3], under 4 nM; in assay [4], 294 nM.

Turning to `COc1ccc2c(c1)C[C@H](C(=O)Nc1ccc(-c3cn[nH]c3)cc1O[C@@H]1CCN(C)C1)CO2`, the IC50 in assay [1] was under 1 nM; in assay [2], 3460 nM; in assay [3], under 4 nM; in assay [4], 261 nM.

Consider `COc1ccc2c(c1)C[C@H](C(=O)Nc1ccc(-c3cn[nH]c3)cc1OCCN1CCCC1)CO2`, for which the IC50 was under 1 nM in assay [1], 9600 nM in assay [2], under 4 nM in assay [3] and 1270 nM in assay [4]. In addition, the results for the Ratio IC50 in the assay listed under Homo sapiens [5] and in the assay listed under Homo sapiens [6] were over 9500 and over 1200, respectively.

`COc1ccc2c(c1)C[C@@H](C(=O)Nc1ccc(-c3cn[nH]c3)cc1OCCCO)CO2`: the results for the IC50 in assay [1], in assay [2] and in assay [3] were 35 nM, over 20000 nM and 519 nM, respectively.

With `COc1ccc2c(c1)C[C@H](C(=O)Nc1ccc(-c3cn[nH]c3)cc1OCCCO)CO2`, the IC50 was under 1 nM in assay [1], 652 nM in assay [2], under 4 nM in assay [3] and 74 nM in assay [4].

Consider `COc1ccc2c(c1)C[C@@H](C(=O)Nc1ccc(-c3cn[nH]c3)cc1OCCN(C)C)CO2`, for which the IC50 in assay [2] is over 20000 nM; in assay [3] it was 43 nM.

With `COc1ccc2c(c1)C[C@@H](C(=O)Nc1ccc(-c3cn[nH]c3)cc1O[C@@H]1CCN(C)C1)CO2`, the IC50 is 14 nM in assay [1], over 20000 nM in assay [2], 32 nM in assay [3] and over 20000 nM in assay [4].

Turning to `COc1ccc2c(c1)C[C@H](C(=O)Nc1ccc(-c3cn[nH]c3)cc1OCCN(C)C)CO2`, the figures for the IC50 in assay [2] and in assay [3] were 1740 nM and under 4 nM, respectively.

`COc1ccc2c(c1)C[C@@H](C(=O)Nc1ccc(-c3cn[nH]c3)cc1OCCN1CCCC1)CO2`: the IC50 is 30 nM in assay [1], over 20000 nM in assay [2], 411 nM in assay [3] and over 20000 nM in assay [4].

Consider `COc1ccc2c(c1)C[C@@H](C(=O)Nc1ccc(-c3cn[nH]c3)cc1O[C@H]1CCN(C)C1)CO2`, for which the IC50 in assay [1] is 34 nM; in assay [2], over 20000 nM; in assay [3], 900 nM.
